Data taken from patent US8802664B2 (Bioproject, priority 2010, dated 2014).
Counter-ions that a name gives are not always drawn.

Row | melting point | Compound
1 | 111 °C | CC(=O)NC1CCN(c2cccc(C(OC3CCN(C)CC3)c3nc4ccccc4s3)c2)C1 (centres unmarked) (as salt: oxalate) [Example 408, N-(1-{3-[benzothiazol-2-yl(1-methylpiperidin-4-yloxy)methyl]phenyl}pyrrolidin-3-yl)acetamide]
2 | 61 °C | CN1CCC(OC(c2cccc(C(F)(F)F)c2)c2nc3ccccc3s2)CC1 (centres unmarked) (as salt: hydrochloride) [Example 31, 2-[(1-methylpiperidin-4-yloxy)(3-trifluoromethylphenyl)methyl]benzothiazole]
3 | 106 °C | CN1CCC(OC(c2cccc(N3CCC(CO)C3)c2)c2nc3ccccc3s2)CC1 (centres unmarked) (as salt: oxalate) [Example 404, (1-{3-[benzothiazol-2-yl(1-methylpiperidin-4-yloxy)methyl]phenyl}pyrrolidin-3-yl)methanol]
4 | 111 °C | CN1CCC(OC(c2cccc(N3CCOCC3)c2)c2nc3ccccc3s2)CC1 (centres unmarked) (as salt: oxalate) [Example 243, 2-[(1-methylpiperidin-4-yloxy)(3-morpholin-4-yl-phenyl)methyl]benzothiazole]
5 | 100 °C | CN1CCC(OC(c2cccc(CCCCN)c2)c2nc3ccccc3s2)CC1 (centres unmarked) (as salt: oxalate) [Example 366, 4-{3-[benzothiazol-2-yl(1-methylpiperidin-4-yloxy)methyl]phenyl}butylamine]
6 | 105 °C | CN1CCC(OC(c2cccc(N3CCC(=O)C3)c2)c2nc3ccccc3s2)CC1 (centres unmarked) (as salt: oxalate) [Example 443, 1-{3-[benzothiazol-2-yl(1-methylpiperidin-4-yloxy)methyl]phenyl}pyrrolidin-3-one]
7 | 50 °C | CN1CCC(OC(c2cccc(OC3CCNC3)c2)c2nc3ccccc3s2)CC1 (centres unmarked) (as salt: oxalate) [Example 382, 2-{(1-methylpiperidin-4-yloxy)[3-(pyrrolidin-3-yloxy)phenyl]methyl}benzothiazole]
8 | 147 °C | CN1CCC(OC(c2cccc(OCCF)c2)c2nc3ccccc3s2)CC1 (centres unmarked) (as salt: oxalate) [Example 163, 2-[[3-(2-fluoroethoxy)phenyl](1-methylpiperidin-4-yloxy)methyl]benzothiazole]
9 | 145 °C | CN1CCC(OC(c2cccc(N3CCC(N)C3)c2)c2nc3ccccc3s2)CC1 (centres unmarked) (as salt: oxalate) [Example 423, 1-{3-[benzothiazol-2-yl(1-methylpiperidin-4-yloxy)methyl]phenyl}pyrrolidin-3-ylamine]
10 | 89 °C | CSCCOc1cccc(C(OC2CCN(C)CC2)c2nc3ccccc3s2)c1 (centres unmarked) (as salt: oxalate) [Example 250, 2-{(1-methylpiperidin-4-yloxy)[3-(2-methylsulfanyl-ethoxy)phenyl]methyl}benzothiazole]
11 | 79 °C | CN1CCC(OC(c2cccc(OCCCO)c2)c2nc3ccccc3s2)CC1 (centres unmarked) (as salt: oxalate) [Example 258, 3-{3-[benzothiazol-2-yl(1-methylpiperidin-4-yloxy)methyl]phenoxy}propan-1-ol]
12 | 137 °C | CN1CCC(OC(c2cccc(N3CCC(N)CC3)c2)c2nc3ccccc3s2)CC1 (centres unmarked) (as salt: oxalate) [Example 405, 1-{3-[benzothiazol-2-yl(1-methylpiperidin-4-yloxy)methyl]phenyl}piperidin-4-ylamine]
13 | 68 °C | CC(C)Oc1cccc(C(OC2CCN(C)CC2)c2nc3ccccc3s2)c1 (centres unmarked) (as salt: oxalate) [Example 55, 2-[(3-isopropoxyphenyl)(1-methylpiperidin-4-yloxy)methyl]benzothiazole]
14 | 99 °C | CN1CCC(OC(c2cccc(N3CCCC3CO)c2)c2nc3ccccc3s2)CC1 (centres unmarked) (as salt: oxalate) [Example 324, (1-{3-[benzothiazol-2-yl(1-methylpiperidin-4-yloxy)methyl]phenyl}pyrrolidin-2-yl)methanol]
15 | 126 °C | CN1CCC(OC(c2cccc(N3CC4CC(N)CC4C3)c2)c2nc3ccccc3s2)CC1 (centres unmarked) (as salt: oxalate) [Example 471]
16 | 70 °C | CN1CCC(OC(c2cccc(N3CCC(F)C3)c2)c2nc3ccccc3s2)CC1 (centres unmarked) (as salt: oxalate) [Example 430, 2-[[3-(3-fluoropyrrolidin-1-yl)phenyl](1-methylpiperidin-4-yloxy)methyl]benzothiazole]

Continued, molecule first:

Row | Compound | melting point
17 | CN1CCC(OC(c2cccc(SCCCCN)c2)c2nc3ccccc3[nH]2)CC1 (centres unmarked) (as salt: oxalate) [Example 326, 4-{3-[(1H-benzimidazol-2-yl)(1-methylpiperidin-4-yloxy)methyl]phenylsulfanyl}butylamine] | 146 °C
18 | C=CCCCOc1cccc(C(OC2CCN(C)CC2)c2nc3ccccc3s2)c1 (centres unmarked) (as salt: oxalate) [Example 168, 2-[(1-methylpiperidin-4-yloxy)(3-pent-4-enyloxy-phenyl)methyl]benzothiazole] | 75 °C
19 | COCCOc1cccc(C(OC2CCN(C)CC2)c2nc3ccccc3s2)c1 (centres unmarked) (as salt: oxalate) [Example 277, 2-[[3-(2-methoxyethoxy)phenyl](1-methylpiperidin-4-yloxy)methyl]benzothiazole] | 80 °C
20 | CN1CCC(OC(c2cccc(CCCCCNC(=N)N)c2)c2nc3ccccc3s2)CC1 (centres unmarked) (as salt: hydrochloride) [Example 365, N-(5-{3-[benzothiazol-2-yl(1-methylpiperidin-4-yloxy)methyl]phenyl}pentyl)guanidine] | 90 °C
21 | CC(=O)c1ccc(-c2cccc(C(OC3CCN(C)CC3)c3nc4ccccc4[nH]3)c2)cc1 (centres unmarked) (as salt: oxalate) [Example 108, 1-{3′-[(1H-benzimidazol-2-yl)(1-methylpiperidin-4-yloxy)methyl]biphenyl-4-yl}ethanone] | 115 °C
22 | CN1CCC(NC(c2cccc(OCc3ccc(F)cc3)c2)c2nc3ccccc3[nH]2)CC1 (centres unmarked) (as salt: oxalate) [Example 103, {(1H-benzimidazol-2-yl)[3-(4-fluorobenzyloxy)phenyl]methyl}(1-methylpiperidin-4-yl)amine] | 140 °C
23 | CN1CCC(OC(c2cccc(OCCCCCNCC(=O)OC(C)(C)C)c2)c2nc3ccccc3s2)CC1 (centres unmarked) (as salt: oxalate) [Example 375, (5-{3-[benzothiazol-2-yl(1-methylpiperidin-4-yloxy)methyl]phenoxy}pentylamino)acetic acid tert-butyl ester] | 99 °C
24 | CN1CCC(OC(c2cccc(C#CCCCn3cccn3)c2)c2nc3ccccc3[nH]2)CC1 (centres unmarked) (as salt: oxalate) [Example 410, 2-{(1-methylpiperidin-4-yloxy)[3-(5-pyrazol-1-yl-pent-1-ynyl)phenyl]methyl}-1H-benzimidazole] | 115 °C
25 | CN1CCC(OC(c2cccc(OCCCCN3CCOCC3)c2)c2nc3ccccc3s2)CC1 (centres unmarked) (as salt: oxalate) [Example 322, 2-{(1-methylpiperidin-4-yloxy)[3-(4-morpholin-4-yl-butoxy)phenyl]methyl}benzothiazole] | 61 °C
26 | CN1CCC(OC(c2nc3ccccc3[nH]2)c2cc(OCCF)ccc2F)CC1 (centres unmarked) (as salt: oxalate) [Example 489] | 109 °C
27 | CN1CCC(NC(c2cccc(F)c2)c2nc3ccccc3[nH]2)CC1 (centres unmarked) (as salt: oxalate) [Example 74, [(1H-benzimidazol-2-yl)(3-fluorophenyl)methyl](1-methylpiperidin-4-yl)amine] | 155 °C
28 | CN1CCC(OC(c2cccc(C#CCCCCN)c2)c2nc3ccccc3s2)CC1 (centres unmarked) (as salt: oxalate) [Example 319, 6-{3-[benzothiazol-2-yl(1-methylpiperidin-4-yloxy)methyl]phenyl}hex-5-ynylamine] | 135 °C
29 | CN1CCC(NC(c2cccc(OCCF)c2)c2nc3ccccc3[nH]2)CC1 (centres unmarked) (as salt: oxalate) [Example 180, {(1H-benzimidazol-2-yl)[3-(2-fluoro-ethoxy)phenyl]methyl}(1-methylpiperidin-4-yl)amine] | 155 °C
30 | CN1CCC(OC(c2cccc(SCCCCCN)c2)c2nc3ccccc3s2)CC1 (centres unmarked) (as salt: oxalate) [Example 305, 5-{3-[benzothiazol-2-yl(1-methylpiperidin-4-yloxy)methyl]phenylsulfanyl}pentylamine] | 201 °C
31 | CN1CCC(NC(c2cccc(-c3ccccc3)c2)c2nc3ccccc3s2)CC1 (centres unmarked) (as salt: oxalate) [Example 102, (benzothiazol-2-ylbiphenyl-3-ylmethyl)(1-methylpiperidin-4-yl)amine] | 112 °C
32 | CCCCCCc1cccc(C(NC2CCN(C)CC2)c2nc3ccccc3[nH]2)c1 (centres unmarked) (as salt: oxalate) [Example 76, [(1H-benzimidazol-2-yl)(3-hexylphenyl)methyl](1-methylpiperidin-4-yl)amine] | 115 °C
33 | Cc1ccc(C(NC2CCN(C)CC2)c2nc3ccccc3s2)cc1 (centres unmarked) (as salt: oxalate) [Example 36, (benzothiazol-2-yl-p-tolylmethyl)(1-methylpiperidin-4-yl)amine] | 110 °C
34 | CN1CCC(OC(c2nc3ccccc3s2)c2cc(OC(F)(F)F)ccc2F)CC1 (centres unmarked) (as salt: oxalate) [Example 526] | 95 °C
35 | CN1CCC(OC(c2cccc(OCCCCN3CCOCC3)c2)c2nc3ccccc3[nH]2)CC1 (centres unmarked) (as salt: oxalate) [Example 332, 2-{(1-methylpiperidin-4-yloxy)[3-(4-morpholin-4-yl-butoxy)phenyl]methyl}-1H-benzimidazole] | 85 °C
36 | CN1CCC(NC(c2cc3ccccc3o2)c2nc3ccccc3s2)CC1 (centres unmarked) (as salt: oxalate) [Example 37, [(benzofuran-2-yl)(benzothiazol-2-yl)methyl](1-methylpiperidin-4-yl)amine] | 125 °C
37 | CN1CCC(OC(c2ccc3c(c2)OCO3)c2nc3ccccc3s2)CC1 (centres unmarked) (as salt: hydrochloride) [Example 20, 2-[benzo[1,3]dioxol-5-yl(1-methylpiperidin-4-yloxy)methyl]benzothiazole] | 110 °C
38 | CN1CCC(OC(c2cc(C(F)(F)F)cc(C(F)(F)F)c2)c2nc3ccccc3[nH]2)CC1 (centres unmarked) (as salt: oxalate) [Example 547] | 130 °C
